Structures can show the parent of a compound that is named as a salt. Where two headings read alike, the source gives them in different places.

Assay [1] deals with full-length human PRMT8 isoform 1 (Homo sapiens, UniProt Q9NR22). The experiment in a line: PRMT8 Biochemical Assay (3H-SAM Flashplate, peptide substrate). The conditions noted are these: read-out: Biochemical IC50 PRMT8. An outline of the steps: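 Scintillation Flashplate capture of biotinylated histone H4 (31-45) peptide (150 nM) methylated by 1.5 nM PRMT8 using 3H-SAM (50 nM) with unlabelled SAM (550 nM); enzyme and compound preincubated 30 min, room temperature, in Bicine pH 7.6 buffer with TCEP, BSG, Tween 20 and 2% DMSO. Stopped with excess cold SAM (400 uM); IC50 from % inhibition, min control 1 mM SAH.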
full-length human PRMT8 isoform 1, sequence (Q9NR22 whole entry, canonical isoform): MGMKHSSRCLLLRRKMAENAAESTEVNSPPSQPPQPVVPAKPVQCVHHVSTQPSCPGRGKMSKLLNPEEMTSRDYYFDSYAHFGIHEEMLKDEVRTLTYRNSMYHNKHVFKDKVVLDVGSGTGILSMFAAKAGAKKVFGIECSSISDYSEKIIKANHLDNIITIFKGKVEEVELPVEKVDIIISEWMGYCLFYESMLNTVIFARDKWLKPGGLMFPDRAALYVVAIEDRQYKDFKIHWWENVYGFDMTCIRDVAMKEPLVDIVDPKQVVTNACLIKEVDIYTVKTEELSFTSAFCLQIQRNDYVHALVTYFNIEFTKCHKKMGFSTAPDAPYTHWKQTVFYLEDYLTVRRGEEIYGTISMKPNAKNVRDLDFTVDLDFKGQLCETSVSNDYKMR

The target in assay [2] is full-length human PRMT1 isoform 1 (GST-tagged) (Homo sapiens, UniProt Q99873). Kind of assay: PRMT1 Biochemical Assay (3H-SAM Flashplate, peptide substrate). An outline of the steps: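 Tritiated methyl transfer from 3H-SAM onto biotinylated peptide, captured on streptavidin Flashplates and counted. Baculovirus-expressed GST-PRMT1 and compound were preincubated 30 min at room temperature in Bicine buffer pH 7.6. Cold SAM at 300 uM final ended the reaction.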
full-length human PRMT1 isoform 1 (GST-tagged), sequence (Q99873 with tags, fused parts or gaps): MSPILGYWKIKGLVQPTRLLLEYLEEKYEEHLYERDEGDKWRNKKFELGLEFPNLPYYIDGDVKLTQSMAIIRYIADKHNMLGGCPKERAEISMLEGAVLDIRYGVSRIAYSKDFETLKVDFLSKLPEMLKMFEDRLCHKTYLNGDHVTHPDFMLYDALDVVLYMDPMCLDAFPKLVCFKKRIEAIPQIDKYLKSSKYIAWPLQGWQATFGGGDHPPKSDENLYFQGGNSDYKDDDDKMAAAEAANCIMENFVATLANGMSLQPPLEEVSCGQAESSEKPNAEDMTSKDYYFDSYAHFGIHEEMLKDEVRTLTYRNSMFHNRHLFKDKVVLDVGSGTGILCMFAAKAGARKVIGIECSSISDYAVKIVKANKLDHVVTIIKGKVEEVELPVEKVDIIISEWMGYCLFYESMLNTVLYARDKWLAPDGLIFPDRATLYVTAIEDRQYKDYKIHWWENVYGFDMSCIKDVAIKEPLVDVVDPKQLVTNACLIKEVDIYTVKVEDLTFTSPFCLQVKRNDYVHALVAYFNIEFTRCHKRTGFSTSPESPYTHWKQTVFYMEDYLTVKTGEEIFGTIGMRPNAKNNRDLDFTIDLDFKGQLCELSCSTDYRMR

Where [3] appears, read: single experiment or average of multiple experiments.

In the case of `CNCCN(C)Cc1c[nH]nc1[C@H]1CC[C@H](N(CCOc2ccccc2)C(=O)CC(C)C)CC1` [Compound 223], the IC50 (commonly the concentration at which inhibition is half-maximal) was < 100 nM in assay [1], 8.65 nM in assay [1] (setting [3]), < 100 nM in assay [2] and 6.65 nM in assay [2] (setting [3]).

For the molecule `CCN(C(=O)CCOc1ccccc1)[C@H]1CC[C@@H](c2n[nH]cc2CN(C)CCNC)CC1` [Compound 224], the 50% inhibitory concentration (IC50) in assay [1] was < 100 nM; in assay [1] (setting [3]), 10.2 nM; in assay [2], < 100 nM; in assay [2] (setting [3]), 9.27 nM.

Consider `CCN(C(=O)CCOc1ccccc1)[C@H]1CC[C@H](c2n[nH]cc2CN(C)CCNC)CC1` [Compound 225], for which the IC50 was < 100 nM in assay [1], 13.9 nM in assay [1] (setting [3]), < 100 nM in assay [2] and 7.62 nM in assay [2] (setting [3]).

`CNCCN(C)Cc1c[nH]nc1[C@H]1CC[C@H](C(=O)N(C)CC(C)C)CC1` [Compound 226]: the IC50 is < 100 nM in assay [1], 57.6 nM in assay [1] (setting [3]), < 100 nM in assay [2] and 33.1 nM in assay [2] (setting [3]).

As to `CNCCN(C)Cc1c[nH]nc1[C@H]1CC[C@H](O)CC1` [Compound 227, 4-[4-([methyl[2-(methylamino)ethyl]amino]methyl)-1H-pyrazol-3-yl]cyclohexan-1-ol trifluoroacetate], the IC50 in assay [1] was < 100 nM; in assay [1] (setting [3]), 35.8 nM; in assay [2] it was < 100 nM; in assay [2] (setting [3]), 16.8 nM.

With `CNCCN(C)Cc1c[nH]nc1[C@H]1CC[C@@H](N(CCOc2ccccc2)C(=O)CCCOC)CC1` [Compound 228], the IC50 in assay [1] was < 100 nM; in assay [1] (setting [3]), 100 nM; in assay [2] it was < 100 nM; in assay [2] (setting [3]) it was 69 nM.

In the case of `CNCCN(C)Cc1c[nH]nc1[C@H]1CC[C@H](N(CCOc2ccccc2)C(=O)CCCOC)CC1` [Compound 229], the IC50 in assay [1] was < 100 nM; in assay [1] (setting [3]), 16 nM; in assay [2] it was < 100 nM; in assay [2] (setting [3]) it was 10.8 nM.

In the case of `CNCCN(C)Cc1c[nH]nc1[C@H]1CC[C@H](N(CCOC)C(=O)CCOc2ccccc2)CC1` [Compound 230], the IC50 is < 100 nM in assay [1], 25.7 nM in assay [1] (setting [3]), < 100 nM in assay [2] and 13.5 nM in assay [2] (setting [3]).

On to `CNCCN(C)Cc1c[nH]nc1[C@H]1CC[C@@H](N(CC(C)C)C(=O)CCOc2ccccc2)CC1` [Compound 231], for which the IC50 in assay [1] is < 100 nM; in assay [1] (setting [3]), 9.32 nM; in assay [2], < 100 nM; in assay [2] (setting [3]), 6.49 nM.

For the molecule `CNCCN(C)Cc1c[nH]nc1[C@H]1CC[C@H](N(CC(C)C)C(=O)CCOc2ccccc2)CC1` [Compound 232], the IC50 in assay [1] was < 100 nM; in assay [1] (setting [3]), 21 nM; in assay [2], < 100 nM; in assay [2] (setting [3]) it was 9.11 nM.

Consider `CNCCN(C)Cc1c[nH]nc1[C@H]1CC[C@@H](N(CC(C)C)C(=O)CCOC)CC1` [Compound 233], for which the IC50 in assay [1] was < 100 nM; in assay [1] (setting [3]), 42.7 nM; in assay [2], < 100 nM; in assay [2] (setting [3]) it was 20.7 nM.

As to `CNCCN(C)Cc1c[nH]nc1[C@H]1CC[C@H](N(CC(C)C)C(=O)CCOC)CC1` [Compound 234], the IC50 in assay [1] is < 100 nM; in assay [1] (setting [3]), 42.8 nM; in assay [2] it was < 100 nM; in assay [2] (setting [3]), 16.1 nM.

Consider `CNCCN(C)Cc1c[nH]nc1[C@H]1CC[C@@H](N(CCC(C)C)C(=O)CCOC)CC1` [Compound 235], for which the IC50 in assay [1] is < 100 nM; in assay [1] (setting [3]), 44 nM; in assay [2], < 100 nM; in assay [2] (setting [3]), 25.7 nM.

On to `CNCCN(C)Cc1c[nH]nc1[C@H]1CC[C@H](N(CCC(C)C)C(=O)CCOC)CC1` [Compound 236], for which the IC50 in assay [1] is < 100 nM; in assay [1] (setting [3]), 57.8 nM; in assay [2], < 100 nM; in assay [2] (setting [3]), 29 nM.

For the molecule `CNCCN(C)Cc1c[nH]nc1[C@H]1CC[C@@H](N(CCC(C)C)C(=O)CCCOC)CC1` [Compound 237], the IC50 in assay [1] is < 100 nM; in assay [1] (setting [3]), 83.3 nM; in assay [2], < 100 nM; in assay [2] (setting [3]), 42.2 nM.

Regarding `CNCCN(C)Cc1c[nH]nc1[C@H]1CC[C@H](N(CCC(C)C)C(=O)CCCOC)CC1` [Compound 238], the IC50 in assay [1] is < 100 nM; in assay [1] (setting [3]), 80.1 nM; in assay [2], < 100 nM; in assay [2] (setting [3]) it was 29.6 nM.

Turning to `CCN(C(=O)CC(C)C)[C@H]1CC[C@H](c2n[nH]cc2CN(C)CCNC)CC1` [Compound 239], the IC50 in assay [1] is < 100 nM; in assay [1] (setting [3]), 13.2 nM; in assay [2] it was < 100 nM; in assay [2] (setting [3]), 6.55 nM.

As for `CCN(C(=O)CC(C)C)[C@H]1CC[C@@H](c2n[nH]cc2CN(C)CCNC)CC1` [Compound 240], the IC50 in assay [1] is < 100 nM; in assay [1] (setting [3]) it was 10.9 nM; in assay [2] it was < 100 nM; in assay [2] (setting [3]) it was 6.1 nM.

With `CNCCN(C)Cc1c[nH]nc1[C@H]1CC[C@H](N(CCCOC)C(=O)CC(C)C)CC1` [Compound 241], the IC50 in assay [1] was < 100 nM; in assay [1] (setting [3]), 48.9 nM; in assay [2], < 100 nM; in assay [2] (setting [3]), 22.4 nM.

With `CNCCN(C)Cc1c[nH]nc1[C@H]1CC[C@@H](N(CCCOC)C(=O)CC(C)C)CC1` [Compound 242], the IC50 in assay [1] was < 100 nM; in assay [1] (setting [3]) it was 83.7 nM; in assay [2], < 100 nM; in assay [2] (setting [3]), 28.3 nM.

`CNCCN(C)Cc1c[nH]nc1[C@H]1CC[C@H](N(CCCOC)C(=O)CCC(C)C)CC1` [Compound 243]: the IC50 was < 100 nM in assay [1], 70.8 nM in assay [1] (setting [3]), < 100 nM in assay [2] and 32.4 nM in assay [2] (setting [3]).

As for `CNCCN(C)Cc1c[nH]nc1[C@H]1CC[C@@H](N(CCCOC)C(=O)CCC(C)C)CC1` [Compound 244], the IC50 in assay [1] was 101 to 1000 nM; in assay [1] (setting [3]), 113 nM; in assay [2], < 100 nM; in assay [2] (setting [3]) it was 39.8 nM.

On to `CNCCN(C)Cc1cnn(C)c1[C@H]1CC[C@@]2(CC1)CC(C)(C)CO2` [Compound 245, Methyl ([2-[methyl([1-methyl-5-[(5S,8S)-3,3-dimethyl-1-oxaspiro[4.5]decan-8-yl]-1H-pyrazol-4-yl]methyl)amino]ethyl])amine trifluoroacetic acid salt], for which the IC50 in assay [1] was < 100 nM; in assay [1] (setting [3]), 18.3 nM; in assay [2] it was < 100 nM; in assay [2] (setting [3]), 18.5 nM.

As for `CNCCN(C)Cc1c[nH]nc1[C@H]1CC[C@@H](N(CCCOC)C(=O)CCOc2ccccc2)CC1` [Compound 246], the IC50 in assay [1] was < 100 nM; in assay [1] (setting [3]), 23.8 nM; in assay [2] it was < 100 nM; in assay [2] (setting [3]), 12.6 nM.

With `CNCCN(C)Cc1c[nH]nc1[C@H]1CC[C@H](N(CCCOC)C(=O)CCOc2ccccc2)CC1` [Compound 247], the IC50 was < 100 nM in assay [1], 16.4 nM in assay [1] (setting [3]), < 100 nM in assay [2] and 11.1 nM in assay [2] (setting [3]).

On to `CNCCN(C)Cc1c[nH]nc1[C@H]1CC[C@H](N(CC(C)C)C(=O)CCCOC)CC1` [Compound 248], for which the IC50 in assay [1] is < 100 nM; in assay [1] (setting [3]), 28.2 nM; in assay [2] it was < 100 nM; in assay [2] (setting [3]), 13.2 nM.

For the molecule `CNCCN(C)Cc1c[nH]nc1[C@H]1CC[C@H](N(CC(C)C)C(=O)CCCOC)CC1` [Compound 249], the IC50 in assay [1] was < 100 nM; in assay [1] (setting [3]) it was 84.5 nM; in assay [2], < 100 nM; in assay [2] (setting [3]), 24.2 nM.

For `CCN(C(=O)CCC(C)C)[C@H]1CC[C@H](c2n[nH]cc2CN(C)CCNC)CC1` [Compound 250], the half-maximal inhibitory concentration (IC50) in assay [1] was < 100 nM; in assay [1] (setting [3]), 42.4 nM; in assay [2], < 100 nM; in assay [2] (setting [3]) it was 24 nM.

On to `CCN(C(=O)CCC(C)C)[C@H]1CC[C@@H](c2n[nH]cc2CN(C)CCNC)CC1` [Compound 251], for which the IC50 was < 100 nM in assay [1], 20.7 nM in assay [1] (setting [3]), < 100 nM in assay [2] and 13.1 nM in assay [2] (setting [3]).

With `CNCCN(C)Cc1c[nH]nc1[C@H]1CC[C@H](N(CCOC)C(=O)CC(C)C)CC1` [Compound 252], the IC50 in assay [1] was < 100 nM; in assay [1] (setting [3]), 51.5 nM; in assay [2] it was < 100 nM; in assay [2] (setting [3]) it was 30.9 nM.

For `CNCCN(C)Cc1c[nH]nc1[C@H]1CC[C@]2(CCOC2(C)C)CC1` [Compound 253], the 50% inhibitory concentration (IC50) is < 100 nM in assay [1], 11.7 nM in assay [1] (setting [3]), < 100 nM in assay [2] and 7.15 nM in assay [2] (setting [3]).

Regarding `CNCCN(C)Cc1c[nH]nc1[C@H]1CC[C@H](N(CCOC)C(=O)CCC(C)C)CC1` [Compound 254], the IC50 in assay [1] was < 100 nM; in assay [1] (setting [3]), 44 nM; in assay [2] it was < 100 nM; in assay [2] (setting [3]), 17.3 nM.

Consider `CNCCN(C)Cc1c[nH]nc1C1CCC(C)(C)[C@@H](C(=O)OC)C1` (some centres unmarked) [Compound 255], for which the IC50 in assay [1] was < 100 nM; in assay [1] (setting [3]) it was 24.5 nM; in assay [2], < 100 nM; in assay [2] (setting [3]), 10.2 nM.

For `CNCCN(C)Cc1c[nH]nc1C1CCC(C)(C)[C@H](C(=O)OC)C1` (some centres unmarked) [Compound 256], the IC50 was < 100 nM in assay [1], 44 nM in assay [1] (setting [3]), < 100 nM in assay [2] and 23.7 nM in assay [2] (setting [3]).

On to `CNCCN(C)Cc1cnn(C)c1[C@H]1CC[C@]2(CC1)CC(C)(C)CO2` [Compound 257], for which the 50% inhibitory concentration (IC50) in assay [1] is < 100 nM; in assay [1] (setting [3]) it was 31 nM; in assay [2] it was < 100 nM; in assay [2] (setting [3]) it was 29.8 nM.

Source of the values: patent publication US11512053B2, “Arginine methyltransferase inhibitors and uses thereof” (priority 2013, dated 2022).
